Data: patent US10973821B2, “Pharmaceutical formulation” (priority 2016, dated 2021)

How the values were obtained:
S. apiospermum 7935 = conditions: cited from earlier work
A. terreus 49 = conditions: cited from earlier work
S. apiospermum 13486 = conditions: cited from earlier work
[1] = test system: Lomentospora prolificans FMR 3569; conditions: mice infected with Lomentospora prolificans FMR 3569; relative to voriconazole; orally by gavage; cited from earlier work
S. apiospermum 15848 = conditions: cited from earlier work
S. prolifican 201 = conditions: cited from earlier work
S. apiospermum 1124 = conditions: cited from earlier work
S. prolifican 15849 = conditions: cited from earlier work
S. prolifican 7935 = conditions: cited from earlier work
A. terreus = conditions: cited from earlier work
S. prolifican 4883 = conditions: cited from earlier work
S. prolifican 1121 = conditions: cited from earlier work
invasive aspergillosis = conditions: mouse; orally by gavage; not the formulations of the present invention; cited from earlier work
S. apiospermum 8353 = conditions: cited from earlier work
S. prolifican 15848 = conditions: cited from earlier work
A. fumigatus [2] = conditions: A. fumigatus infected mice; orally by gavage; cited from earlier work
S. prolifican 8353 = conditions: cited from earlier work
[3] = in vivo PK studies in cynomolgus monkeys (single dose IV and p.o.); conditions: both sexes, cynomolgus monkey, 10 mg/kg
Method: Various formulations were investigated in in vivo PK studies in cynomolgus monkeys to determine the optimal oral formulation for dosing to animals and humans.
The compound of Formula I was administered to male and female cynomolgus monkeys by IV at a dosage of 10 mg/kg. The IV formulation was as described in Example 3. […] The AUCIV value was subsequently used to calculate the bioavailability of example oral formulations as described above.
Studies were conducted using Formulation 2 as described above. The compound of Formula I was administered p.o. to male and female cynomolgus monkeys at a dose level of 10 mg/kg. (dose volume 5 mL/kg). 2 mL blood samples were obtained 5 minutes via femoral puncture (vein/artery) into commercially available K2EDTA tubes using 23G needles coupled to a suitable syringe. Samples were taken 0.25, 0.5, 1, 2, 4, 8, 12 and 24 hours after administration of the formulation. Blood samples were kept on ice until centrifugation at 1600×g (10 mins, ca. 5° C.) to separate plasma. Analysis to calculate plasma concentration of the compound of Formula I was conducted by LC-MS/MS.
Studies were conducted using Formulation 5 as described in Example 3. […]

S. boydii = conditions: cited from earlier work
S. dehoogii = conditions: cited from earlier work
[4] = in vivo PK studies in rats (single dose IV and p.o.); conditions: rat, 10 mg/kg
Method: Various formulations were investigated in in vivo PK studies in rats to determine the optimal oral formulation for dosing to animals and humans.
The compound of Formula I was administered to rats by IV at a dosage of 10 mg/kg. The vehicle comprised 15% hydroxypropyl beta cyclodextrin (Kelptose HPB parenteral grade), 5% DMSO and water for injection. The formulation was filtered using a ≤0.22 μm polyethersulfone (PES) membrane filter prior to use. The dose volume administered was 5 mL/kg. 0.2 mL blood samples from the sublingal vein under isoflurane anaesthesia were obtained 5 minutes after IV administration and stored in EDTA. Plasma was separated by centrifugation (1500×g, 10 mins, ca. 4° C.) and was frozen at −70° C. prior to analysis. Analysis to calculate plasma concentration of the compound of Formula I was conducted by LC-MS/MS. […] The AUCIV value was subsequently used to calculate the bioavailability of example oral formulations as described above.
A crystalline sample of the compound of Formula I was formulated in PEG300. The formulation was dosed p.o. (gavage) to rats at 10 mg/kg (dose volume=5 mL/kg). 0.2 mL blood samples from the sublingal vein under isoflurane anaesthesia were obtained 15 minutes after oral administration and stored in EDTA. Samples were then taken 0.5, 1, 2, 4, 8, 12 and 24 hours post-dose.

S. prolificans 18389 = conditions: cited from earlier work
S. prolifican 451 = conditions: cited from earlier work
A. fumigatus 210 = conditions: cited from earlier work
S. apiospermum 451 = conditions: cited from earlier work
S. prolificans 206 = conditions: cited from earlier work
A. fumigatus [5] = conditions: cited from earlier work
S. aurantiacum = conditions: cited from earlier work
S. prolifican 13486 = conditions: cited from earlier work
A. flavus = conditions: cited from earlier work
S. apiospermum 4883 = conditions: cited from earlier work
A. niger = conditions: cited from earlier work
S. prolificans 6322 = conditions: cited from earlier work

Cc1cc(-c2ccccc2)c(C(=O)C(=O)Nc2ccc(N3CCN(c4ncc(F)cn4)CC3)cc2)n1C [compound of Formula I, 2-(1,5-dimethyl-3-phenyl-1H-pyrrol-2-yl)-N-(4-(4-(5-fluoropyrimidin-2-yl)piperazin-1-yl)phenyl)-2-oxoacetamide]
MIC band (RPMI medium) (S. apiospermum 7935): C (0.01 < MIC ≤ 0.02) | MIC band (RPMI medium) (A. terreus 49): A (MIC ≤ 0.005) | MIC band (RPMI medium) (S. apiospermum 13486): D (0.02 < MIC ≤ 0.04) | survival [1]: increase survival | MIC band (RPMI medium) (S. apiospermum 15848): D (0.02 < MIC ≤ 0.04) | MIC band (RPMI medium) (S. prolifican 201): D (0.02 < MIC ≤ 0.04) | MIC band (RPMI medium) (S. apiospermum 1124): A (MIC ≤ 0.005) | MIC band (RPMI medium) (S. prolifican 15849): E (0.04 < MIC ≤ 0.06) | MIC band (RPMI medium) (S. prolifican 7935): C (0.01 < MIC ≤ 0.02) | MIC band (RPMI medium) (A. terreus): A (MIC ≤ 0.005) | MIC band (RPMI medium) (S. prolifican 4883): C (0.01 < MIC ≤ 0.02) | MIC band (RPMI medium) (S. prolifican 1121): A (MIC ≤ 0.005) | efficacy in murine models of invasive aspergillosis (invasive aspergillosis): excellent efficacy | MIC band (RPMI medium) (S. apiospermum 8353): B (0.005 < MIC ≤ 0.01) | MIC band (RPMI medium) (S. prolifican 15848): D (0.02 < MIC ≤ 0.04) | galactomannan indices (A. fumigatus [2]): reduce galactomannan indices | MIC band (RPMI medium) (S. prolifican 8353): B (0.005 < MIC ≤ 0.01) | AUC [3]: 18000 ng·h/mL | antifungal activity (S. boydii): good antifungal activity | antifungal activity (S. dehoogii): good antifungal activity | AUC [4]: 13500 ng·h/mL | MIC band (RPMI medium) (S. prolificans 18389): C (0.01 < MIC ≤ 0.02) | MIC band (RPMI medium) (S. prolifican 451): B (0.005 < MIC ≤ 0.01) | MIC band (RPMI medium) (A. fumigatus 210): C (0.01 < MIC ≤ 0.02) | MIC band (RPMI medium) (S. apiospermum 451): B (0.005 < MIC ≤ 0.01) | MIC band (RPMI medium) (S. prolificans 206): D (0.02 < MIC ≤ 0.04) | MIC band (RPMI medium) (A. fumigatus [5]): C (0.01 < MIC ≤ 0.02) | antifungal activity (S. aurantiacum): good antifungal activity | MIC band (RPMI medium) (S. prolifican 13486): D (0.02 < MIC ≤ 0.04) | MIC band (RPMI medium) (A. flavus): B (0.005 < MIC ≤ 0.01) | MIC band (RPMI medium) (S. apiospermum 4883): C (0.01 < MIC ≤ 0.02) | MIC band (RPMI medium) (A. niger): C (0.01 < MIC ≤ 0.02) | MIC band (RPMI medium) (S. prolificans 6322): D (0.02 < MIC ≤ 0.04)
